Measurements taken from patent US20100298340A1, “Thiazol-Guanidine Derivatives Useful As A (Beta)-Related Pathologies” (AstraZeneca AB, priority 2006, published 2010).
pIC50: −log10 of the molar value.

Target: T1, human β-Secretase (Homo sapiens, UniProt P56817)
T1 construct: The soluble part of the human β-Secretase (AA 1-AA 460) was cloned; Fc domain of IgG1 (C); made in house
Assay: TR-FRET Assay
Type: biochemical
Protocol: The enzyme used in the IGEN Cleavage-, Fluorescent-, TR-FRET- and the BiaCore assay is described as follows:
The soluble part of the human β-Secretase (AA 1-AA 460) was cloned into the ASP2-Fc10-1-IRES-GFP-neoK mammalian expression vector. The gene was fused to the Fc domain of IgG1 (affinity tag) and stably cloned into HEK 293 cells. Purified sBACE-Fc is stored in Tris buffer, pH 9.2 and has a purity of 95%.
Dilute the enzyme (truncated form) to 6 μg/mL (stock 1.3 mg/mL) and the substrate (Europium)CEVNLDAEFK(Qsy7) to 200 nM (stock 60 μM) in reaction buffer (NaAcetate, chaps, triton x-100, EDTA pH4.5). The Biomek FX is used for all liquid handling and the enzyme and substrate solutions are kept on ice until they are placed in Biomek FX. Enzyme (9 μl) is added to the plate then 1 μl of compound in dimethylsulphoxide is added, mixed and pre-incubated for 10 minutes. Substrate (10 μl) is then added, mixed and the reaction proceeds in the dark for 15 minutes at room temperature. The reaction is stopped with the addition of Stop solution ([…] pH 9). The fluorescence of the product is measured on a Victor II plate reader with an excitation wavelength of 340 nm and an emission wavelength of 615 nm. The assay is done in a Costar 384 well round bottom, low volume, non-binding surface (Corning #3676). The final concentration of the enzyme is 0.3 nM; the final concentration of substrate is 100 nM (Km of ˜250 nM). The dimethylsulphoxide control defines the 100% activity level and 0% activity is defined by only addition of the peptide substrate.

T1 sequence (P56817 22-460): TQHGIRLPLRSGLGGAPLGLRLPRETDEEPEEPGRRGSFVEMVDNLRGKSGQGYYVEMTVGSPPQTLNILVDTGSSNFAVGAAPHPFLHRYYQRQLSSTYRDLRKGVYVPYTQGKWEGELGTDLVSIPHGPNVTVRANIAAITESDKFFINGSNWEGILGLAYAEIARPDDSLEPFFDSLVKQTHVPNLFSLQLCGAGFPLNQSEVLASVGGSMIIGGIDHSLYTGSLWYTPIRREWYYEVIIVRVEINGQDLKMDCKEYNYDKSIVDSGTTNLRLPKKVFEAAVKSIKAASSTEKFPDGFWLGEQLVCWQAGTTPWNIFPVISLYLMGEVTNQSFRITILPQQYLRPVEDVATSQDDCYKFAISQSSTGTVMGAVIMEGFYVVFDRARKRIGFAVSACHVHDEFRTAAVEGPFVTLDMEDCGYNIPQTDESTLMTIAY

Row | SMILES | pIC50
1 | Cc1nc(NC(=N)N)sc1-c1cccc(NC(=O)c2ccc(-c3csnn3)cc2)c1 [Example 17, N-[3-(2-{[Amino(imino)methyl]amino}-4-methyl-1,3-thiazol-5-yl)phenyl]-4-(1,2,3-thiadiazol-4-yl)benzamide] | 5.35
2 | CCc1ccc2c(Cl)c(C(=O)Nc3cccc(-c4sc(NC(=N)N)nc4C)c3)sc2c1 [Example 18, N-[3-(2-{[Amino(imino)methyl]amino}-4-methyl-1,3-thiazol-5-yl)phenyl]-3-chloro-6-ethyl-1-benzothiophene-2-carboxamide] | 5.22
3 | CCc1nc(NC(=N)N)sc1-c1ccc(NCC2CCN(C(=O)OCc3ccccc3)CC2)cc1 [Example 20, Benzyl 4-({[4-(2-{[amino(imino)methyl]amino}-4-ethyl-1,3-thiazol-5-yl)phenyl]amino}methyl)piperidine-1-carboxylate] | 5.30
